In patent US20100035871A1, “BENZOXAZINE DERIVATIVES AND USES THEREOF” (priority 2006, published 2010):
Structures can show the parent of a compound that is named as a salt.

SMILES | melting point
NCC1CNc2cc(F)cc(-c3c(Cl)cccc3Cl)c2O1 (racemic) (as salt: hydrochloride) [Example 10, 1-[8-(2,6-Dichlorophenyl)-6-fluoro-3,4-dihydro-2H-1,4-benzoxazin-2-yl]methanamine] | 135 to 136 °C
CN1CC(CN)Oc2c(-c3ccccc3Cl)cccc21 (racemic) (as salt: hydrochloride) [Example 11, 1-[8-(2-Chlorophenyl)-4-methyl-3,4-dihydro-2H-1,4-benzoxazin-2-yl]methanamine] | 80 °C (dec.)
NCC1CN(CC2CC2)c2cccc(-c3ccccc3Cl)c2O1 (racemic) (as salt: hydrochloride) [Example 12, 1-[8-(2-Chlorophenyl)-4-(cyclopropylmethyl)-3,4-dihydro-2H-1,4-benzoxazin-2-yl]methanamine] | 90 °C (dec.)
CN1CC(CN)Oc2c(-c3cc(Cl)ccc3Cl)cccc21 (racemic) (as salt: hydrochloride) [Example 13, 1-[8-(2,5-Dichlorophenyl)-4-methyl-3,4-dihydro-2H-1,4-benzoxazin-2-yl]methanamine] | 90 °C (dec.)
NCC1CNc2cccc(-c3cc(Cl)ccc3Cl)c2O1 (racemic) (as salt: hydrochloride) [Example 14, 1-[8-(2,5-Dichlorophenyl)-3,4-dihydro-2H-1,4-benzoxazin-2-yl]methanamine] | 130 °C (dec.)
NCC1CNc2cccc(-c3ccc(Cl)cc3Cl)c2O1 (racemic) (as salt: hydrochloride) [Example 15, 1-[8-(2,4-Dichlorophenyl)-3,4-dihydro-2H-1,4-benzoxazin-2-yl]methanamine] | 158 to 161 °C
NCC1CNc2cccc(-c3ccccc3Cl)c2O1 (racemic) (as salt: hydrochloride) [Example 16, 1-[8-(2-Chlorophenyl)-3,4-dihydro-2H-1,4-benzoxazin-2-yl]methanamine] | 140 °C (dec.)
Cc1ccccc1-c1cccc2c1OC(CN)CN2 (racemic) (as salt: hydrochloride) [Example 17, 1-[8-(2-Methylphenyl)-3,4-dihydro-2H-1,4-benzoxazin-2-yl]methanamine] | 195 to 197 °C
NCC1CNc2cccc(-c3ccc(Cl)cc3C(F)(F)F)c2O1 (racemic) (as salt: hydrochloride) [Example 18, 1-{8-[4-Chloro-2-(trifluoromethyl)phenyl]-3,4-dihydro-2H-1,4-benzoxazin-2-yl}methanamine] | 205 to 207 °C
CCN1CC(CN)Oc2c(-c3ccccc3Cl)cccc21 (racemic) (as salt: hydrochloride) [Example 19, 1-[8-(2-Chlorophenyl)-4-ethyl-3,4-dihydro-2H-1,4-benzoxazin-2-yl]methanamine] | 105 to 106 °C
Cc1cc(Cl)ccc1-c1cccc2c1OC(CN)CN2 (racemic) (as salt: hydrochloride) [Example 20, 1-[8-(4-chloro-2-methylphenyl)-3,4-dihydro-2H-1,4-benzoxazin-2-yl]methanamine] | 192 to 194 °C
CCCN1CC(CN)Oc2c(-c3ccccc3Cl)cccc21 (racemic) (as salt: hydrochloride) [Example 21, 1-[8-(2-Chlorophenyl)-4-propyl-3,4-dihydro-2H-1,4-benzoxazin-2-yl]methanamine] | 83 to 85 °C
NCC1CNc2cccc(-c3ccccc3C(F)(F)F)c2O1 (racemic) (as salt: hydrochloride) [Example 22, 1-{8-[2-(Trifluoromethyl)phenyl]-3,4-dihydro-2H-1,4-benzoxazin-2-yl}methanamine] | 185 to 187 °C
NCC1CNc2cccc(-c3ccc(C(F)(F)F)cc3C(F)(F)F)c2O1 (racemic) (as salt: hydrochloride) [Example 23, 1-{8-[2,4-Bis(trifluoromethyl)phenyl]-3,4-dihydro-2H-1,4-benzoxazin-2-yl}methanamine] | 192 to 194 °C
COc1ccc(-c2cccc3c2OC(CN)CN3)c(C)c1 (racemic) (as salt: hydrochloride) [Example 24, 1-[8-(4-Methoxy-2-methylphenyl)-3,4-dihydro-2H-1,4-benzoxazin-2-yl]methanamine] | 230 to 232 °C
NCC1COc2cc(Cl)cc(-c3ccccc3C(F)(F)F)c2N1 (racemic) (as salt: hydrochloride) [Example 25, 1-{7-Chloro-5-[2-(trifluoromethyl)phenyl]-3,4-dihydro-2H-1,4-benzoxazin-3-yl}methanamine] | 102 °C (dec.)
COc1ccc(-c2cc(Cl)cc3c2NC(CN)CO3)cc1 (racemic) (as salt: hydrochloride) [Example 26, 1-[7-Chloro-5-(4-methoxyphenyl)-3,4-dihydro-2H-1,4-benzoxazin-3-yl]methanamine] | 101 °C (dec.)
COc1ccc(-c2cc(Cl)cc3c2NC(CN)CO3)c(C)c1 (racemic) (as salt: hydrochloride) [Example 27, 1-[7-chloro-5-(4-methoxy-2-methylphenyl)-3,4-dihydro-2H-1,4-benzoxazin-3-yl]methanamine] | 98 °C (dec.)

SMILES | melting point
COc1ccc(-c2cc(Cl)cc3c2N(C)C(CN)CO3)c(C)c1 (racemic) (as salt: hydrochloride) [Example 28, 1-[7-chloro-5-(4-methoxy-2-methylphenyl)-4-methyl-3,4-dihydro-2H-1,4-benzoxazin-3-yl]methanamine] | 106 °C (dec.)
NCC1COc2cc(Cl)cc(-c3ccccc3)c2N1 (racemic) (as salt: hydrochloride) [Example 29, 1-(7-chloro-5-phenyl-3,4-dihydro-2H-1,4-benzoxazin-3-yl)methanamine] | 92 °C (dec.)
Cc1ccccc1-c1cc(Cl)cc2c1NC(CN)CO2 (racemic) (as salt: hydrochloride) [Example 30, 1-[7-chloro-5-(2-methylphenyl)-3,4-dihydro-2H-1,4-benzoxazin-3-yl]methanamine] | 86 °C (dec.)
Cc1ccc(-c2cc(Cl)cc3c2NC(CN)CO3)c(C(F)(F)F)c1 (racemic) (as salt: hydrochloride) [Example 31, 1-{7-chloro-5-[4-methyl-2-(trifluoromethyl)phenyl]-3,4-dihydro-2H-1,4-benzoxazin-3-yl}methanamine] | 98 °C (dec.)
COc1ccc(-c2cc(Cl)cc3c2NC(CN)CO3)c(Cl)c1 (racemic) (as salt: hydrochloride) [Example 32, 1-[7-chloro-5-(2-chloro-4-methoxyphenyl)-3,4-dihydro-2H-1,4-benzoxazin-3-yl]methanamine] | 105 °C (dec.)
NCC1COc2cc(Cl)cc(-c3ccccc3F)c2N1 (racemic) (as salt: hydrochloride) [Example 33, 1-[7-chloro-5-(2-fluorophenyl)-3,4-dihydro-2H-1,4-benzoxazin-3-yl]methanamine] | 95 °C (dec.)
COc1ccccc1-c1cc(Cl)cc2c1NC(CN)CO2 (racemic) (as salt: hydrochloride) [Example 34, 1-[7-chloro-5-(2-methoxyphenyl)-3,4-dihydro-2H-1,4-benzoxazin-3-yl]methanamine] | 100 °C (dec.)
Cc1cc(Cl)ccc1-c1cc(Cl)cc2c1NC(CN)CO2 (racemic) (as salt: hydrochloride) [Example 35, 1-[7-chloro-5-(4-chloro-2-methylphenyl)-3,4-dihydro-2H-1,4-benzoxazin-3-yl]methanamine] | 102 °C (dec.)
NCC1COc2cc(Cl)cc(-c3ccccc3Cl)c2N1 (racemic) (as salt: hydrochloride) [Example 36, 1-[7-chloro-5-(2-chlorophenyl)-3,4-dihydro-2H-1,4-benzoxazin-3-yl]methanamine] | 108 °C (dec.)
NCC1COc2cc(Cl)cc(-c3ccc(Cl)cc3C(F)(F)F)c2N1 (racemic) (as salt: hydrochloride) [Example 37, 1-{7-chloro-5-[4-chloro-2-(trifluoromethyl)phenyl]-3,4-dihydro-2H-1,4-benzoxazin-3-yl}methanamine] | 95 °C (dec.)
NCC1COc2cc(Cl)cc(-c3ccc(C(F)(F)F)cc3C(F)(F)F)c2N1 (racemic) (as salt: hydrochloride) [Example 38, 1-{5-[2,4-bis(trifluoromethyl)phenyl]-7-chloro-3,4-dihydro-2H-1,4-benzoxazin-3-yl}methanamine] | 98 °C (dec.)
NCC1COc2cc(F)cc(-c3ccccc3C(F)(F)F)c2N1 (racemic) (as salt: hydrochloride) [Example 55, 1-{7-fluoro-5-[2-(trifluoromethyl)phenyl]-3,4-dihydro-2H-1,4-benzoxazin-3-yl}methanamine] | 99 °C (dec.)
COc1ccc(-c2cc(F)cc3c2NC(CN)CO3)c(C)c1 (racemic) (as salt: hydrochloride) [Example 56, 1-[7-fluoro-5-(4-methoxy-2-methylphenyl)-3,4-dihydro-2H-1,4-benzoxazin-3-yl]methanamine] | 82 °C (dec.)
NCC1COc2cc(F)cc(-c3ccccc3Cl)c2N1 (racemic) (as salt: hydrochloride) [Example 57, 1-[5-(2-chlorophenyl)-7-fluoro-3,4-dihydro-2H-1,4-benzoxazin-3-yl]methanamine] | 86 °C (dec.)
Cc1ccccc1-c1cc(F)cc2c1NC(CN)CO2 (racemic) (as salt: hydrochloride) [Example 58, 1-[7-fluoro-5-(2-methylphenyl)-3,4-dihydro-2H-1,4-benzoxazin-3-yl]methanamine] | 78 °C (dec.)
COc1ccc(-c2cc(F)cc3c2NC(CN)CO3)c(Cl)c1 (racemic) (as salt: hydrochloride) [Example 59, 1-[5-(2-chloro-4-methoxyphenyl)-7-fluoro-3,4-dihydro-2H-1,4-benzoxazin-3-yl]methanamine] | 84 °C (dec.)
Cc1ccc(-c2cc(F)cc3c2NC(CN)CO3)c(C(F)(F)F)c1 (racemic) (as salt: hydrochloride) [Example 60, 1-{7-fluoro-5-[4-methyl-2-(trifluoromethyl)phenyl]-3,4-dihydro-2H-1,4-benzoxazin-3-yl}methanamine] | 86 °C (dec.)
